# Laboratory results published in ChEMBL document CHEMBL1151141, “Antineoplastic agents, 162. Zephyranthes candida” (1990).
# Tested on: P388
# Test: Cytotoxicity against mouse P388 cells
# Assay type: functional
# Conditions: read-out: ED50 (the source's name)
row,Compound,EC50 [ng/mL]
1,O=C1N[C@H]2[C@H](O)[C@H](O)[C@@H](O)C[C@H]2c2cc3c(c(O)c21)OCO3,24
2,O=C1N[C@H]2[C@H](O)[C@H](O)[C@@H](O)C[C@@H]2c2cc3c(c(O)c21)OCO3,3.2
3,CC(=O)Oc1c2c(cc3c1C(=O)N[C@H]1[C@H](OC(C)=O)[C@H](OC(C)=O)[C@@H](OC(C)=O)C[C@H]31)OCO2,3.2
